Tested on: women
Experiment: Effect of one intake of levonorgestrel within different stages of the menstrual cycle on women pregnancies
Type: in vivo
Conditions: levonorgestrel 1.5 mg single oral tablet, 1,117 women
Procedure: 1,117 women (aged 24.9+/−6.5 years) received levonorgestrel (1.5 mg) in form of a single oral tablet during different stages of their menstrual cycle.
The reference (day 0) is the ovulation. The fertile period extends from five days before the ovulation to one day after the ovulation.

## C#C[C@]1(O)CC[C@H]2[C@@H]3CCC4=CC(=O)CC[C@@H]4[C@H]3CC[C@@]21CC [levonorgestrel, D-(−)-ethyl-13β ethynyl-17α hydroxy-17 gonene-4 one-3]
Menstrual cycle stage <−5 day (day 0 = ovulation)
  % pregnancies (failures): 0%
Menstrual cycle stage >+1 day (day 0 = ovulation)
  % pregnancies (failures): 44%
Menstrual cycle stage between −5 and +1 day (fertile period)
  % pregnancies (failures): 56%

— patent US20130090318A1, “ONCE-A-MONTH METHOD OF CONTRACEPTION” (LABORATOIRE HRA-PHARMA, priority 2010, published 2013)
